Earlier results on one substance are cited in patent US20020141964A1, “Composition for arresting the flow of blood and method” (priority 2001, published 2002).

For the series, the system named is blood flowing from an open wound. To be noted: shown in the earlier U.S. patent of the co-inventors.

On to potassium ferrate, for which the “accelerated clotting of blood flowing from an open wound” value is reported as “effectively accomplishes the accelerated clotting of blood”.
